molecular target: T1, GST-tagged GDP-loaded KRAS G12V (amino acids 1-169) (Homo sapiens, UniProt P01116, G12V); assay: KRAS G12V probe displacement assay (TR-FRET); type: binding; conditions: displacement of biotinylated probe 2 from GDP-loaded KRAS G12V
T1 construct: GST-tagged GDP-loaded KRAS G12V (amino acids 1-169); made in house; host or cells: E. coli
Experimental: KRAS WT and KRAS G12V Probe Displacement Assay
This assay was used to identify compounds which bind to GDP-loaded KRAS protein and are able to displace a biotinylated probe occupying the KRAS binding site. GST-tagged GDP-loaded WT KRAS (amino acids 1-169) and GST-tagged GDP-loaded KRAS G12V (amino acids 1-169) were expressed in E. coli and purified in house. All protein and reaction solutions were prepared in assay buffer containing 50 mM HEPES pH7.5, 50 mM NaCl, 1 mM MgCl2, 1 mM TCEP, 0.01% BSA, and 0.008% Brij-35. Purified WT KRAS (3 nM final concentration) or KRAS G12V protein (2 nM final concentration) was incubated with a 3-fold serially diluted compound in the assay plate (384 well microplate, black, Corning). Plates are incubated at 24° C. for 1 hr. Following the incubation, biotinylated probe 1 (60 nM final assay concentration) for WT KRAS and biotinylated probe 2 (2.5 nM final assay concentration) for KRAS G12V was added to the assay plate, respectively. After 1 hr incubation at 24° C., Mab Anti-GST-Tb cryptate (Cisbio) and Streptavidin-XL665 (Cisbio) were added and further incubated at 24° C. for another 1 hr. The TR-FRET signals (ex337 nm, em665 nm/620 nm) were read on BMG PHERAstar FSX instrument. The inhibition percentage of KRAS protein binding with biotinylated probe in presence of increasing concentrations of compounds was calculated based on the ratio of fluorescence at 665 nm to that at 620 nm. The IC50 value of each compound was calculated from fitting the data to the four-parameter logistic model by Dotmatics.

T1 sequence (P01116 1-169 isoform P01116-2 G12V): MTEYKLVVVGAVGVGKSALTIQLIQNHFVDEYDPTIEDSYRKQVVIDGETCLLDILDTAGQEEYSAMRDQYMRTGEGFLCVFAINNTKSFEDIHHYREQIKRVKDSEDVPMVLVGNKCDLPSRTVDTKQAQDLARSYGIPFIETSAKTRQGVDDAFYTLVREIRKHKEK

Q: How did the IC50 turn out when `Nc1nc2c(-c3c(C(F)(F)F)cc4c(N5CC(F)(F)C5)nc(OC[C@@]56CCCN5C[C@H](F)C6)nc4c3F)ccc(F)c2s1` [Example 38, 4-(4-(3,3-difluoroazetidin-1-yl)-8-fluoro-2-(((2R,7aS)-2-fluorotetrahydro-1H-pyrrolizin-7a(5H)-yl)methoxy)-6-(trifluoromethyl)quinazolin-7-yl)-7-fluorobenzo[d]thiazol-2-amine] was run?
A: Its IC50 is 25 nM.

Q: For `N#CCC1CN(c2nc(OC[C@@]34CCCN3C[C@H](F)C4)nc3c(F)c(-c4ccc(F)c5sc(N)nc45)c(C(F)(F)F)cc23)C1` [Example 40, 2-(1-(7-(2-amino-7-fluorobenzo[d]thiazol-4-yl)-8-fluoro-2-(((2R,7aS)-2-fluorotetrahydro-1H-pyrrolizin-7a(5H)-yl)methoxy)-6-(trifluoromethyl)quinazolin-4-yl)azetidin-3-yl)acetonitrile], which IC50 is on record?
A: Its IC50 is 12 nM.

Q: How did the IC50 turn out when `N#CCCC1CN(c2nc(OC[C@@]34CCCN3C[C@H](F)C4)nc3c(F)c(-c4ccc(F)c5sc(N)nc45)c(C(F)(F)F)cc23)C1` [Example 41, 3-(1-(7-(2-amino-7-fluorobenzo[d]thiazol-4-yl)-8-fluoro-2-(((2R,7aS)-2-fluorotetrahydro-1H-pyrrolizin-7a(5H)-yl)methoxy)-6-(trifluoromethyl)quinazolin-4-yl)azetidin-3-yl)propanenitrile] was run?
A: The IC50 was 12 nM.

Q: For `CC1(C#N)CN(c2nc(OC[C@@]34CCCN3C[C@H](F)C4)nc3c(F)c(-c4ccc(F)c5sc(N)nc45)c(C(F)(F)F)cc23)C1` [Example 42, 1-(7-(2-amino-7-fluorobenzo[d]thiazol-4-yl)-8-fluoro-2-(((2R,7aS)-2-fluorotetrahydro-1H-pyrrolizin-7a(5H)-yl)methoxy)-6-(trifluoromethyl)quinazolin-4-yl)-3-methylazetidine-3-carbonitrile], which IC50 is on record?
A: Its IC50 is 70 nM.

Q: With `CS(=O)(=O)C1CN(c2nc(OC[C@@]34CCCN3C[C@H](F)C4)nc3c(F)c(-c4ccc(F)c5sc(N)nc45)c(C(F)(F)F)cc23)C1` [Example 44, 7-fluoro-4-(8-fluoro-2-(((2R,7aS)-2-fluorotetrahydro-1H-pyrrolizin-7a(5H)-yl)methoxy)-4-(3-(methylsulfonyl)azetidin-1-yl)-6-(trifluoromethyl)quinazolin-7-yl)benzo[d]thiazol-2-amine] as the compound, how does the IC50 read?
A: Its IC50 is 14 nM.

Q: Which IC50 does the source give for `COC1CN(c2nc(OC[C@@]34CCCN3C[C@H](F)C4)nc3c(F)c(-c4ccc(F)c5sc(N)nc45)c(C(F)(F)F)cc23)C1` [Example 45, 7-fluoro-4-(8-fluoro-2-(((2R,7aS)-2-fluorotetrahydro-1H-pyrrolizin-7a(5H)-yl)methoxy)-4-(3-methoxyazetidin-1-yl)-6-(trifluoromethyl)quinazolin-7-yl)benzo[d]thiazol-2-amine] here?
A: Its IC50 is 15 nM.

Q: How did the IC50 turn out when `CC1(O)CN(c2nc(OC[C@@]34CCCN3C[C@H](F)C4)nc3c(F)c(-c4ccc(F)c5sc(N)nc45)c(C(F)(F)F)cc23)C1` [Example 46, 1-(7-(2-amino-7-fluorobenzo[d]thiazol-4-yl)-8-fluoro-2-(((2R,7aS)-2-fluorotetrahydro-1H-pyrrolizin-7a(5H)-yl)methoxy)-6-(trifluoromethyl)quinazolin-4-yl)-3-methylazetidin-3-ol] was run?
A: Its IC50 is 7.1 nM.

Q: Which IC50 does the source give for `CC1C(O)CN1c1nc(OC[C@@]23CCCN2C[C@H](F)C3)nc2c(F)c(-c3ccc(F)c4sc(N)nc34)c(C(F)(F)F)cc12` (stereo partly drawn) [Example 47, 1-(7-(2-amino-7-fluorobenzo[d]thiazol-4-yl)-8-fluoro-2-(((2R,7aS)-2-fluorotetrahydro-1H-pyrrolizin-7a(5H)-yl)methoxy)-6-(trifluoromethyl)quinazolin-4-yl)-2-methylazetidin-3-ol] here?
A: Its IC50 is 1.9 nM.

Q: With `Nc1nc2c(-c3c(C(F)(F)F)cc4c(N5CC(CO)C5)nc(OC[C@@]56CCCN5C[C@H](F)C6)nc4c3F)ccc(F)c2s1` [Example 48, (1-(7-(2-amino-7-fluorobenzo[d]thiazol-4-yl)-8-fluoro-2-(((2R,7aS)-2-fluorotetrahydro-1H-pyrrolizin-7a(5H)-yl)methoxy)-6-(trifluoromethyl)quinazolin-4-yl)azetidin-3-yl)methanol] as the compound, how does the IC50 read?
A: The IC50 was 4.1 nM.

Q: With `Nc1nc2c(-c3c(C(F)(F)F)cc4c(N5CC[C@@H]5CO)nc(OC[C@@]56CCCN5C[C@H](F)C6)nc4c3F)ccc(F)c2s1` [Example 49, ((2R)-1-(7-(2-amino-7-fluorobenzo[d]thiazol-4-yl)-8-fluoro-2-(((2R,7aS)-2-fluorotetrahydro-1H-pyrrolizin-7a(5H)-yl)methoxy)-6-(trifluoromethyl)quinazolin-4-yl)azetidin-2-yl) methanol] as the compound, how does the IC50 read?
A: The IC50 was 3 nM.

Q: How did the IC50 turn out when `Nc1nc2c(-c3c(C(F)(F)F)cc4c(N5CCCC5)nc(OC[C@@]56CCCN5C[C@H](F)C6)nc4c3F)ccc(F)c2s1` [Example 50, 7-fluoro-4-(8-fluoro-2-(((2R,7aS)-2-fluorotetrahydro-1H-pyrrolizin-7a(5H)-yl)methoxy)-4-(pyrrolidin-1-yl)-6-(trifluoromethyl)quinazolin-7-yl)benzo[d]thiazol-2-amine] was run?
A: Its IC50 is 13 nM.

Q: For `Nc1nc2c(-c3c(C(F)(F)F)cc4c(N5CC[C@@H](F)C5)nc(OC[C@@]56CCCN5C[C@H](F)C6)nc4c3F)ccc(F)c2s1` [Example 51, 7-fluoro-4-(8-fluoro-4-((R)-3-fluoropyrrolidin-1-yl)-2-(((2R,7aS)-2-fluorotetrahydro-1H-pyrrolizin-7a(5H)-yl)methoxy)-6-(trifluoromethyl)quinazolin-7-yl)benzo[d]thiazol-2-amine], which IC50 is on record?
A: Its IC50 is 11 nM.

Q: `Nc1nc2c(-c3c(C(F)(F)F)cc4c(N5CC[C@H](F)C5)nc(OC[C@@]56CCCN5C[C@H](F)C6)nc4c3F)ccc(F)c2s1` [Example 52, 7-fluoro-4-(8-fluoro-4-((S)-3-fluoropyrrolidin-1-yl)-2-(((2R,7aS)-2-fluorotetrahydro-1H-pyrrolizin-7a(5H)-yl)methoxy)-6-(trifluoromethyl)quinazolin-7-yl)benzo[d]thiazol-2-amine] was tested. Which IC50 did it give?
A: The IC50 was 19 nM.

Q: With `Nc1nc2c(-c3c(C(F)(F)F)cc4c(N5CCC(F)(F)C5)nc(OC[C@@]56CCCN5C[C@H](F)C6)nc4c3F)ccc(F)c2s1` [Example 53, 4-(4-(3,3-difluoropyrrolidin-1-yl)-8-fluoro-2-(((2R,7aS)-2-fluorotetrahydro-1H-pyrrolizin-7a(5H)-yl)methoxy)-6-(trifluoromethyl)quinazolin-7-yl)-7-fluorobenzo[d]thiazol-2-amine] as the compound, how does the IC50 read?
A: The IC50 was 12 nM.

Q: With `C[C@@H]1CCN(c2nc(OC[C@@]34CCCN3C[C@H](F)C4)nc3c(F)c(-c4ccc(F)c5sc(N)nc45)c(C(F)(F)F)cc23)C1` [Example 54, 7-fluoro-4-(8-fluoro-2-(((2R,7aS)-2-fluorotetrahydro-1H-pyrrolizin-7a(5H)-yl)methoxy)-4-((R)-3-methylpyrrolidin-1-yl)-6-(trifluoromethyl)quinazolin-7-yl)benzo[d]thiazol-2-amine] as the compound, how does the IC50 read?
A: The IC50 was 41 nM.

Q: `C[C@@H]1CCCN1c1nc(OC[C@@]23CCCN2C[C@H](F)C3)nc2c(F)c(-c3ccc(F)c4sc(N)nc34)c(C(F)(F)F)cc12` [Example 55, 7-fluoro-4-(8-fluoro-2-(((2R,7aS)-2-fluorotetrahydro-1H-pyrrolizin-7a(5H)-yl)methoxy)-4-((R)-2-methylpyrrolidin-1-yl)-6-(trifluoromethyl)quinazolin-7-yl)benzo[d]thiazol-2-amine] was tested. Which IC50 did it give?
A: The IC50 was 168 nM.
